Read-outs that look alike come from different tables or passages of the source.
Tested on: mouse embryonic teratocarcinoma F9 cells
Assay: mouse embryonic teratocarcinoma F9 cell differentiation test (antagonist activity)
Type: cell-based
Conditions: inhibition by 50% of agonist effect on secretion of plasminogen activator, CD 2043 at 10 nM, incubation for three days, read-out: Antagonist against CD 2043 (10 nM) F9 differentiation test IC50
Excerpt: The compounds according to the invention show activity in the test of differentiation of mouse embryonic teratocarcinoma cells (F9) (Cancer Research, 43, 5268 (1983)) and/or in the test of inhibition of ornithine decarboxylase after induction with TPA in mice (Cancer Research, 38, 793–801 (1978)). These tests show the activities of these compounds in the fields of cell differentiation and cell proliferation, respectively. In the test of cell (F9) differentiation, […] to retinoic acid receptors. […] Some of these compounds are thus also active in a test which is used to identify molecules which are RAR antagonists, as described in French patent application No. 95/07302 filed on 19 Jun. 1995 by the same Assignee as the present invention, which is incorporated by reference in its entirety herein. […] Thus, the response to a topical application, to the ear of a mammal, of an RAR-agonist molecule, which corresponds to an increase in the thickness of this ear, may be inhibited by the systemic or topical administration of an RAR-antagonist molecule. In addition, some of these compounds may provide synergism to the biological activity of products binding to the nuclear receptors.
The antagonist activity of the compounds of formula (I) was evaluated in the mouse embryonic teratocarcinoma F9 cell differentiation test, (Cancer Research, 43, 5268 (1983)).
The F9 cells were inoculated in 12-well clusters, the compounds were tested at from 10^−9 to 10^−5 M in the presence of all-trans-retinoic acid or of a synthetic agonist retinoid, 4-(5,6,7,8-tetrahydro-5,5,8,8-tetramethyl-2-naphthylaminomethyl)benzoic acid (CD 2043), at 10^−8 M. After incubation for three days, the morphological observations were carried out and the concentration of the test compound which inhibits the agonist effect on the secretion of the plasminogen activator by 50% (IC50) was determined.

Row | Compound | IC50 [nM] | IC50 (Mus musculus, F9, 72 h) [nM]
1 | COCCOCOc1ccc(/C(C)=C/c2ccc(C(=O)O)cn2)cc1C12CC3CC(CC(C3)C1)C2 [Example 10, 6-{2-[3-Adamant-1-yl-4-(2-methoxyethoxymethoxy)-phenyl]proven-(E)-yl}nicotinic acid] | 35 | –
2 | COCCOCOc1ccc(/C(C)=C/c2ccc(C(=O)O)cc2)cc1C12CC3CC(CC(C3)C1)C2 [Example 4, 4-[(E)-2-(3-(1-Adamantyl)-4-methoxyethoxymethoxy-phenyl)-1-propenyl]benzoic acid] | – | 9
3 | COCCOCOc1ccc(/C=C/c2ccc(C(=O)O)cc2)cc1C12CC3CC(CC(C3)C1)C2 [Example 2, 4-[(E)-2-(3-(1-Adamantyl)-4-methoxyethoxymethoxy-phenyl)ethenyl]benzoic acid] | – | 310
4 | COCCOCOc1ccc(/C(C)=C/c2ccc(C(=O)O)nc2)cc1C12CC3CC(CC(C3)C1)C2 [Example 7, 5-{2-[3-Adamant-1-yl-4-(2-methoxyethoxymethoxy)-phenyl]proxpen-(E)-yl}pyridine-2-carboxylic acid] | 600 | –
5 | COCCOCOc1ccc(/C(C)=C\c2ccc(C(=O)O)cc2)cc1C12CC3CC(CC(C3)C1)C2 [Example 5, 4-[(Z)-2-(3-(1-Adamantyl)-4-methoxyethoxymethoxy-phenyl)-1-prorenyl]benzoic acid] | 630 | –

Reference: patent publication US6992095B2, “Stilbene compounds comprising an adamantyl group, compositions and methods thereof” (Galderma Research & Development, S.N.C., priority 1996, dated 2006)
